In patent US6828106B2, “Methods and compositions using coiled binding partners” (Cyclacel Limited, priority 1999, dated 2004):

How the values were obtained:
[1] = molecular target: T1, TEV protease (Tobacco etch virus, UniProt P04517); test: TEV protease FP assay with homodimer-forming reporter peptide; format: biochemical; details: 0.05-100 mM iodacetamide added prior to TEV protease; 6 μM reporter peptide, 30° C.; read-out: IC50 value (TEV protease inhibitor iodacetamide) as determined by FP analysis
T1 construct: Proteolytic cleavage was initiated by the addition of TEV protease (20U, Gibco Life Technologies); histidine tag; purchased Gibco Life Technologies
T1 sequence (P04517 2038-2279): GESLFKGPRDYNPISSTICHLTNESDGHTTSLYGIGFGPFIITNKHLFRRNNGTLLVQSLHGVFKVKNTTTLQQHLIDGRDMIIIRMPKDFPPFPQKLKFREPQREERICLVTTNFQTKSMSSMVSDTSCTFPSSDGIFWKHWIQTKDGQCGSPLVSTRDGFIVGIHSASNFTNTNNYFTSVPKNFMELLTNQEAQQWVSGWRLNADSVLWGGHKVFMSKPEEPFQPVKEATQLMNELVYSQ
Protocol: (§1) TEV protease activity and inhibition of TEV protease activity was determined by using a peptide capable of forming a homodimer, wherein homodimer formation is decreased following TEV protease cleavage of the peptide, according to the following method.
For FP analysis the reporter peptide (sequence recited above) was labeled with fluorescein or with biotin. The labeled peptides were incubated at a total peptide concentration of 6 μM (6:1 ratio, biotin:F) in 50 mM Tris, pH 8, 0.5 mM EDTA, 0.1 mg/ml BSA and 1 mM DTT at 30° C. for 5 minutes in a total volume of 100 μl. Proteolytic cleavage was initiated by the addition of TEV protease (20U), and monitored during the reaction time course by measuring the polarization of fluorescein (excitation 485 nm, emission 520 nm) over time. Initial rates of change of fluorescein polarization were determined for the linear portion of the reaction.
(§2) The activity of the TEV protease inhibitor iodacetamide was determined by FRET or FP assays performed as described above in the absence of iodacetamide or in the presence of 0.05-100 mM iodacetamide added prior to the addition of TEV protease. The results of these experiments are presented in FIG. 9 (FRET assay) and FIG. 11 (FP assay).

[2] = molecular target: T1, TEV protease; test: TEV protease FRET assay with homodimer-forming reporter peptide; format: biochemical; details: 0.05-100 mM iodacetamide added prior to TEV protease; 6 μM reporter peptide, 30° C.; FIG. 9; read-out: IC50 value (TEV protease inhibitor iodacetamide) as determined by FRET analysis
Protocol: as §1
For FRET analysis the reporter peptide (KGR MRCLEDR VENLYSQ SYHLENE VARLRRL VGELAAK) (SEQ ID NO: 32) was labeled with fluorescein or rhodamine. The labeled peptides were incubated at a total peptide concentration of 6 μM (6:1 ratio, R:F) in 50 mM Tris pH 8, and 0.5 mM EDTA, and 1 mM DTT at 30° C. for 15 minutes in a total volume of 100 μl. Proteolytic cleavage was initiated by the addition of TEV protease (20U, Gibco Life Technologies), and monitored during the time course of the reaction by measuring the emission of fluorescein (excitation 485 nm, emission 520 nm) over time. Initial rates of change of fluorescein emission were determined for the linear portion of the reaction.
as §2

Molecule NC(=O)CI [iodacetamide, reference compound] has an IC50 [1] of 1000 µM and an IC50 [2] of 885 µM.
